Residues, ends and D or L forms follow the SMILES beside them. No end group written: not given here.
How the values were obtained:
chymotrypsin = assay: In vitro digestion stability, chymotrypsin; assay type: in vitro ADME; conditions: simulated gastrointestinal digestion, individually or continuously, compared with before digestion, peptide 0.5 mg/mL (TEAC), 1.0 mg/mL (superoxide), n = 3
Excerpt: (§1) According to the main components of human gastrointestinal digestive juice and digestive environment, a human gastrointestinal digestion simulation system was established to study the antioxidant activity changes of peptides after digestion by human gastrointestinal digestion simulation system. The method was according to the previously reported by Jang et al..
(§2) Peptides 2 and 4 synthesized in this study might be better antioxidants than the other peptides because of their high resistance to superoxide anion radical and high TEACs (Fig. 5) (P < 0.05). The peptide concentrations for the determination of superoxide anion radical scavenging activity and TEAC in the stability study (3.5 and 3.6) were chosen to be 1.0 and 0.5 mg/mL, respectively, according to the experimental results.

trypsin = assay: In vitro digestion stability, trypsin; assay type: in vitro ADME; conditions: simulated gastrointestinal digestion, compared with before digestion, peptide 0.5 mg/mL (TEAC), 1.0 mg/mL (superoxide), n = 3
Excerpt: as §1, §2

pepsin = assay: In vitro digestion stability, pepsin; assay type: in vitro ADME; conditions: simulated gastrointestinal digestion, compared with before digestion, peptide 0.5 mg/mL (TEAC), 1.0 mg/mL (superoxide), n = 3
Excerpt: as §1, §2

[1] = Trolox equivalent antioxidant capacity (TEAC), ABTS radical scavenging; assay type: biochemical; conditions: synthesized peptides; PBS pH 7.4, 30 °C, 30 min, 734 nm; n = 3
Method: The experiment referred to methods of Costa and Xing and made appropriate modifications. This method used Trolox as the standard antioxidant and all reagents were prepared in 50 mmol/L phosphate buffered solution (pH 7.4). The specific operation was as follows: PBS (50 µL) solution (blank group), different concentrations of Trolox solution (standard control group) and sample solution to be tested (sample group) were added to a transparent 96-well microplate, and then 150 µL ABTS^+· was quickly added. The solution was shaken at 30 °C for 30 min and its absorbance was measured at 734 nm using a microplate scanning spectrophotometer (Multiskan FC, Thermo Fisher Scientific (Shanghai), China). ABTS radical scavenging activity was calculated as ABTS+·clearancerate%=1-ASample/ABlank×100

[2] = Superoxide anion radical scavenging activity assay (pyrogallol autoxidation method); assay type: biochemical; conditions: synthesized peptides, Tris-HCl pH 8.3, 320 nm, n = 3
Method: Superoxide anion radical scavenging activity assay was measured using the pyrogallol autoxidation method with some modifications. Mix 1.6 mL of sample with an equal volume of 50 mM Tris–HCl buffer (pH 8.3). The mixture was incubated in a bath for 20 min, then 0.8 mL of 1.5 mM pyrogallic acid was added. Absorbance of the mixture was measured at 320 nm every 30 s for 5 min. For blank, 1.6 mL of Tris–HCl buffer was used instead of sample. Ascorbic acid and GSH were used as positive controls. Superoxide anion radical scavenging activity was calculated as: O2-clearancerate%=1-ΔODS/ΔODb×100%, Where,ΔODSandΔODb represented slope of absorbance line for sample and slope of absorbance line for blank.

[3] = Temperature stability of antioxidant activity; assay type: physicochemical; conditions: compared with the three other peptides; read-out superoxide scavenging and TEAC
Method: The antioxidant activities of purple wheat bran antioxidant peptides at different passivation temperatures for 60 min were studied. The detection method of antioxidant activities was shown in 2.4. Before the antioxidant activities were measured, the samples allowed to cool to room temperature (25 °C) and pH was adjusted to 7.0.
as §2

Molecule	TEAC and superoxide anion radical scavenging activity after digestion by chymotrypsin (chymotrypsin)	TEAC and superoxide anion radical scavenging activity after digestion by trypsin (trypsin)	TEAC and superoxide anion radical scavenging activity after digestion by pepsin (pepsin)	temperature stability (overall) [3]	IC50, TEAC (ABTS radical scavenging) [1] [µg/mL]	IC50, superoxide anion radical scavenging [2] [µg/mL]
N=C(N)NCCC[C@H](N)C(=O)N[C@@H](CC(N)=O)C(=O)N[C@@H](Cc1ccccc1)C(=O)O [peptide 3, Arg-Asn-Phe] (H-Arg-Asn-Phe-OH)	significant reduction	significantly declined	insignificant changes			
CGFPGHC (cysteine pairing not given here) [peptide 1, antioxidant peptide identified in F4-4 of purple wheat bran protein hydrolysate, synthesized by Fmoc solid phase method]	significant reduction		insignificant changes		763	2898
C[C@H](NC(=O)[C@@H](N)CCC(N)=O)C(=O)N[C@@H](CS)C(=O)O [peptide 2, Gln-Ala-Cys] (H-Gln-Ala-Cys-OH)	remained at the same levels	remained at the same levels	remained at the same levels	better temperature stability		

Continued, in another order:

TEAC and superoxide anion radical scavenging activity after digestion by chymotrypsin (chymotrypsin)	TEAC and superoxide anion radical scavenging activity after digestion by trypsin (trypsin)	TEAC and superoxide anion radical scavenging activity after digestion by pepsin (pepsin)	temperature stability (overall) [3]	Molecule	IC50, TEAC (ABTS radical scavenging) [1] [µg/mL]	IC50, superoxide anion radical scavenging [2] [µg/mL]
significant reduction		insignificant changes		N[C@@H](Cc1c[nH]c2ccccc12)C(=O)N[C@@H](Cc1ccccc1)C(=O)O [peptide 5, Trp-Phe] (H-Trp-Phe-OH)		
remained at the same levels	remained at the same levels	remained at the same levels	better temperature stability	N[C@@H](CO)C(=O)N[C@@H](CO)C(=O)N[C@@H](CS)C(=O)O [peptide 4, Ser-Ser-Cys] (H-Ser-Ser-Cys-OH)		

— paper PMC7533037, “Purification, structural analysis, and stability of antioxidant peptides from purple wheat bran” (BMC Chemistry, 2020)
